According to patent publication US12216122B2, “Compositions and methods relating to detection, inhibition, and imaging of indoleamine 2,3-dioxygenase 1 (IDO1)” (Regeneron Pharmaceuticals, Inc., priority 2019, dated 2025):
Read-outs that look alike come from different tables or passages of the source. Each block holds one molecule with its values, some of them ahead of it. Numbered stars: 1 amine (or outer) side, 2 acyl side, 3 side chain; on linkers, the order of the positions; unused ones are H or OH. Bridge positions count the residues as written; N and C are the ends. Square brackets hold non-standard residues; d marks the D form. Triazole bridges read from a SMILES are 1,4-linked. Ends that are not written are not given here. Peptide text beside a SMILES is read from it. * marks the point of attachment. Biotinyl(3aR,4R,6aS) = O=C1N[C@@H]2[C@@H](CS[C@@H]2CCCCC(=O)*)N1; NH(CH2CH2O)5CH2CO = O=C(COCCOCCOCCOCCOCCN[*:1])[*:2]; X6 = O=C([C@@H](Cc1ccc(Oc2ccccc2)cc1)N[*:1])[*:2]; Biotin = O=C1N[C@H]2[C@H](CS[C@H]2CCCCC(=O)*)N1; dTrp(1-Me) = Cn1cc(C[C@@H](N)C(=O)O)c2ccccc21; NMeLys(N3) = CN[C@@H](CCCCN=[N+]=[N-])C(=O)O; X1 = O=C(CSc1nonc1/C(=N/O)Nc1ccc(F)c(Br)c1)*; Trp(1-Me) = Cn1cc(C[C@H](N)C(=O)O)c2ccccc21; X5 = O=C1N[C@@H]2CSC(CCCCC(=O)*)[C@@H]2N1; PEG8 = NCCOCCOCCOCCOCCOCCOCCOCCOCCC(=O)O; dPhe(4-Me) = Cc1ccc(C[C@@H](N)C(=O)O)cc1; Lys(N3) = [N-]=[N+]=NCCCC[C@H](N)C(=O)O; Phe(4-F) = N[C@@H](Cc1ccc(F)cc1)C(=O)O; X4 = O=C1NC2CS[C@@H](CCCCC(=O)*)C2N1; PEG6 = NCCOCCOCCOCCOCCOCCOCCC(=O)O; dTle = CC(C)(C)[C@@H](N)C(=O)O; dNMeV = CN[C@@H](C(=O)O)C(C)C; PEG4 = NCCOCCOCCOCCOCCC(=O)O; AEEEA = NCCOCCOCCOCC(=O)O; Pra = C#CC[C@H](N)C(=O)O

Columns and labels:
[1] = molecular target: T1, recombinant human IDO1 (Homo sapiens, UniProt P14902); test: IDO1 Fluorogenic Inhibitor Screening Assay (enzyme inhibition); type: biochemical
T1 construct: purchased BPS Biosciences 72037
Description: The IDO1 Fluorogenic Inhibitor Screening Assay Kit (72037, BPS Biosciences) was used to measure the enzyme inhibition of human IDO1 in the presence of macrocyclic peptide ligands. IDO1 catalyzes the conversion of the essential amino acid L-tryptophan (L-Trp) to N-formylkynurenine (NFK). In the assay, the test inhibitor and enzyme were added to a sample containing L-Trp substrate. After incubation for 1 h at room temperature, 20 μL Fluorescence Solution was added and incubated at 37° C. for 4 h to produce a fluorescent product. Activity was measured by reading sample fluorescence at λ=510 nm following excitation of the reaction product at λ=400 nm.

[2] = molecular target: T2, His-tagged IDO1 human recombinant protein (Homo sapiens, UniProt P14902); test: IDO1 ELISA (Affinity Assay): sandwich ELISA, biotinylated ligand immobilized on NEUTRAVIDIN plate; type: binding
T2 construct: purchased BPS Biosciences 71182
Description: Protocol: A black 96-well NEUTRAVIDIN® Coated High Binding Capacity plate (15510, Pierce) was coated with 2 μM biotinylated macrocyclic peptide ligand in TBS (25 mM Tris-HCl, 150 mM NaCl, pH 7.6) for 2 h at room temperature. The plate was aspirated and then washed with Wash Buffer (0.05% (v/v) TWEEN® 20 in PBS, 6×). His-tagged IDO1 human recombinant protein (71182, BPS Biosciences) was serially diluted in Wash Buffer (from 200 to 0 nM) and incubated in the designated microwells for 1 h at room temperature. Microwells were aspirated and subsequently washed with Wash Buffer (11×). To detect the bound IDO1 protein, Alkaline Phosphatase (AP)-conjugated Anti-6×HIS TAG® antibody [HIS-1] (ab49746, Abcam) was prepared at 1:10,000 dilution and added to the microwells for 1 h at room temperature. The plate was aspirated and washed with Wash Buffer (5×). ATTOPHOS® AP Fluorescent Substrate System (S1000, Promega) was employed to develop the microwells. Using an excitation wavelength of 430 nm, fluorescent emission at 535 nm was recorded by Beckman Coulter DTX880 photometer. Titration curves were fit using a four-parameter regression curve fitting program to determine EC50 values.
For these assays, a dilution series of His-tagged IDO1 human recombinant protein was captured using the macrocyclic peptide ligands immobilized on a NEUTRAVIDIN®-coated plate. […] The sequences of the peptide ligands are listed in Table 1, where D-amino acids are denoted in lowercase, Me-Trp=1-methyl-L-tryptophan, and F-Phe=4-fluoro-L-phenylalanine. Chemical structures are shown below Table 1.
The D-alanine substituted, biotin-PEG3-modified macrocycles were tested in the IDO1 ELISA (Affinity assay). For these assays, a dilution series of His-tagged IDO1 human recombinant protein was captured using macrocycles immobilized on a NEUTRAVIDIN®-coated plate.

[3] = N-methylated heterobiligands, PEG6 linker, read-out: IC50
[4] = Table 15, read-out: Inhibition Recombinant IDO1 IC50
[5] = 2 μM biotinylated macrocycle immobilized, human IDO1 titrated 200 to 0 nM, read-out: EC50, sandwich ELISA for human IDO1 protein against biotin-PEG3-modified macrocycle

T2 sequence (P14902 whole entry): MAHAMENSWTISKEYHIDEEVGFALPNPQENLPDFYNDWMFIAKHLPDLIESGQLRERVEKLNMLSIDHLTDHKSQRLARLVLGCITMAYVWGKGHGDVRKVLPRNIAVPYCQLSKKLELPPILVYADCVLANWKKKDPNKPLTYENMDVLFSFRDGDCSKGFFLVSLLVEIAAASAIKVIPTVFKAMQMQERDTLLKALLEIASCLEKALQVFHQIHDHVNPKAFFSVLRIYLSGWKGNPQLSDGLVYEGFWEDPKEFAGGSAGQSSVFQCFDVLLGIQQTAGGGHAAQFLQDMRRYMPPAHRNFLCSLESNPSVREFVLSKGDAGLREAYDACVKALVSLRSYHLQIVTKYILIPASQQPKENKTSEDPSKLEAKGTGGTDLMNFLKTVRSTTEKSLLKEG
T1 sequence (P14902 whole entry): as above

Molecule: N=C(N)NCCC[C@H]1NC(=O)[C@@H](Cc2ccc(O)cc2)NC(=O)[C@@H](Cc2c[nH]c3ccccc23)NC(=O)[C@@H](NC(=O)CCOCCOCCOCCOCCNC(=O)CSc2nonc2/C(=N/O)Nc2ccc(F)c(Br)c2)Cc2cn(nn2)CCCC[C@@H](C(N)=O)NC(=O)[C@@H](Cc2ccc(O)cc2)NC1=O [Inh-PEG4-wyry] ({X1-PEG4}-[Pra][dW][dY][dR][dY][Lys(N3)]-NH2; triazole 1-6)
IDO1 inhibition potency relative to the small molecule (Inh) alone, in words [1]: equal in potency

Molecule: Inh-PEG6-wyvay ([dW][dY][dV][dA][dY]; also: IDO1 inhibitor via PEG6 linker)
IDO1 inhibition potency relative to the small molecule (Inh) alone, in words [1]: an order of magnitude more potent than the small molecule

IC50 [1, 3]: 1460 nM | IC50 [1, 4]: 1460 nM
Molecule: CC(C)[C@@H]1C(=O)N[C@H](C)C(=O)N[C@H](Cc2ccc(O)cc2)C(=O)N[C@H](C(N)=O)CCCCn2cc(nn2)C[C@H](NC(=O)CCOCCOCCOCCOCCOCCOCCNC(=O)CSc2nonc2/C(=N/O)Nc2ccc(F)c(Br)c2)C(=O)N[C@H](Cc2c[nH]c3ccccc23)C(=O)N[C@H](Cc2ccc(O)cc2)C(=O)N1C [Inh-PEG6-wy(N-Me-v)ay] ({X1-PEG6}-[Pra][dW][dY][dNMeV][dA][dY][Lys(N3)]-NH2; triazole 1-7)

Molecule: N=C(N)NCCC[C@H]1NC(=O)[C@@H](Cc2ccc(O)cc2)NC(=O)[C@@H](Cc2c[nH]c3ccccc23)NC(=O)[C@@H](NC(=O)CCOCCOCCOCCOCCOCCOCCOCCOCCNC(=O)CSc2nonc2/C(=N/O)Nc2ccc(F)c(Br)c2)Cc2cn(nn2)CCCC[C@@H](C(N)=O)NC(=O)[C@@H](Cc2ccc(O)cc2)NC1=O [Inh-PEG8-wyry] ({X1-PEG8}-[Pra][dW][dY][dR][dY][Lys(N3)]-NH2; triazole 1-6)
IDO1 inhibition potency relative to the small molecule (Inh) alone, in words [1]: significantly less potent than Inh alone

EC50 ([2]; read-out: Binding affinity (EC50)): 18 nM
Molecule: CC(=O)N[C@H]1Cc2cn(nn2)CCCC[C@@H](C(N)=O)NC(=O)[C@@H](Cc2ccc(C)cc2)NC(=O)CNC(=O)[C@@H](C(C)(C)C)NC(=O)[C@@H](Cc2ccc(Oc3ccccc3)cc2)NC(=O)[C@@H](Cc2c[nH]c3ccccc23)NC1=O [w(Ph-Tyr)(Me-Val)G(Me-Phe)] (Ac-[Pra][dW][X6][dTle]G[dPhe(4-Me)][Lys(N3)]-NH2; triazole 1-7)

Molecule: PEG4
IDO1 inhibition potency relative to the small molecule (Inh) alone, in words [1]: less active than the small molecule alone

Molecule: CC(C)C[C@H]1NC(=O)[C@@H](NC(=O)COCCOCCOCCNC(=O)CCCCC2SC[C@H]3NC(=O)N[C@@H]23)Cc2cn(nn2)CCCC[C@@H](C(N)=O)NC(=O)[C@H](Cc2ccc(F)cc2)NC(=O)[C@H](Cc2cn(C)c3ccccc23)NC(=O)[C@@H](Cc2ccccc2)NC1=O (stereo partly drawn) [lf(Me-Trp)(F-Phe), Biotin-PEG3-Cy(lf(Me-Trp)(F-Phe))] ({X5-AEEEA}-[Pra][dL][dF][Trp(1-Me)][Phe(4-F)][Lys(N3)]-NH2; triazole 1-6)
Binding to human IDO1 by ELISA, in words [2]: slight decrease in binding affinity

Molecule: CC(C)[C@H]1NC(=O)[C@@H](Cc2ccc(O)cc2)NC(=O)[C@@H](Cc2c[nH]c3ccccc23)NC(=O)[C@@H](NC(=O)COCCOCCOCCOCCOCCNC(=O)CSc2nonc2/C(=N/O)Nc2ccc(F)c(Br)c2)Cc2cn(nn2)CCCC[C@@H](C(N)=O)NC(=O)[C@@H](Cc2ccc(O)cc2)NC(=O)[C@@H](C)NC1=O [Inh-PEG5-wyvay] (X1-[NH(CH2CH2O)5CH2CO][Pra][dW][dY][dV][dA][dY][Lys(N3)]-NH2; triazole 2-8)
IDO1 inhibition potency relative to the small molecule (Inh) alone, in words [1]: less active than the small molecule alone

EC50 [2, 5]: 124 nM | EC50 ([2]; Example 9, read-out: Binding affinity (EC50) of prioritized Epitope 1 hits): 124 nM
Molecule: Cn1cc(C[C@H]2NC(=O)[C@@H](CCCNC(=N)N)NC(=O)[C@@H](Cc3ccccc3)NC(=O)[C@@H](CO)NC(=O)[C@@H](CC(N)=O)NC(=O)[C@@H](NC(=O)COCCOCCOCCNC(=O)CCCC[C@@H]3SCC4NC(=O)NC43)Cc3cn(nn3)CCCC[C@@H](C(N)=O)NC2=O)c2ccccc21 (stereo partly shown) [nsfr(Me-Trp), biotin-PEG3-Cy(nsfr(Me-Trp))] ({X4-AEEEA}-[Pra][dN][dS][dF][dR][dTrp(1-Me)][Lys(N3)]-NH2; triazole 1-7)

EC50 ([2]; binding analysis of VHL-linked Epitope 2 ligand, read-out: EC50): 30 nM
Molecule: nlf(Me-Trp)(F-Phe)-Ge-VHL: Epitope 2 peptide ligand linked to VHL E3 ligase ligand ([dN][dL][dF][Trp(1-Me)][Phe(4-F)]; also: Ge linker to VHL E3 ligase ligand)

Molecule: CC(C)[C@H]1NC(=O)[C@@H](Cc2ccc(O)cc2)NC(=O)[C@@H](Cc2c[nH]c3ccccc23)NC(=O)[C@@H](NC(=O)CNC(=O)CNC(=O)CSc2nonc2/C(=N/O)Nc2ccc(F)c(Br)c2)Cc2cn(nn2)CCCC[C@@H](C(N)=O)NC(=O)[C@@H](Cc2ccc(O)cc2)NC(=O)[C@@H](C)NC1=O [Deprotected-Inh-Gly2-wyvay] (X1-GG[Pra][dW][dY][dV][dA][dY][Lys(N3)]-NH2; triazole 3-9)
IDO1 inhibition potency relative to the small molecule (Inh) alone, in words [1]: less active than the small molecule alone

Molecule: C[C@H]1NC(=O)[C@@H](CCCNC(=N)N)NC(=O)[C@@H](Cc2ccc(O)cc2)NC(=O)[C@@H](NC(=O)COCCOCCOCCNC(=O)CCCC[C@H]2SC[C@H]3NC(=O)N[C@H]32)Cc2cn(nn2)CCCC[C@@H](C(N)=O)NC(=O)[C@@H](Cc2ccc(O)cc2)NC1=O [yray, Biotin-PEG3-Cy(yray)] ({Biotinyl(3aR,4R,6aS)-AEEEA}-[Pra][dY][dR][dA][dY][Lys(N3)]-NH2; triazole 1-6)
Binding to human IDO1 by ELISA, in words [2]: less potent binders

EC50 [2, 5]: 68 nM
Molecule: N=C(N)NCCC[C@H]1NC(=O)[C@H](Cc2ccc(F)cc2)NC(=O)[C@@H](Cc2c[nH]cn2)NC(=O)[C@@H](CO)NC(=O)[C@@H](CC(N)=O)NC(=O)[C@@H](NC(=O)COCCOCCOCCNC(=O)CCCC[C@H]2SC[C@H]3NC(=O)N[C@H]32)Cc2cn(nn2)CCCC[C@@H](C(N)=O)NC1=O [nsh(F-Phe)r, biotin-PEG3-Cy(nsh(F-Phe)r)] ({Biotinyl(3aR,4R,6aS)-AEEEA}-[Pra][dN][dS][dH][Phe(4-F)][dR][Lys(N3)]-NH2; triazole 1-7)

Molecule: C[C@H]1NC(=O)[C@@H](CCCNC(=N)N)NC(=O)[C@@H](Cc2c[nH]c3ccccc23)NC(=O)[C@@H](NC(=O)COCCOCCOCCNC(=O)CCCC[C@H]2SC[C@H]3NC(=O)N[C@H]32)Cc2cn(nn2)CCCC[C@@H](C(N)=O)NC(=O)[C@@H](Cc2ccc(O)cc2)NC1=O [wray, Biotin-PEG3-Cy(wray)] ({Biotinyl(3aR,4R,6aS)-AEEEA}-[Pra][dW][dR][dA][dY][Lys(N3)]-NH2; triazole 1-6)
Binding to human IDO1 by ELISA, in words [2]: less potent binders

Molecule: NC(=O)[C@@H]1CCCCn2cc(nn2)C[C@H](NC(=O)COCCOCCOCCNC(=O)CCCC[C@@H]2SC[C@@H]3NC(=O)N[C@@H]32)C(=O)N[C@H](CO)C(=O)N[C@H](Cc2c[nH]c3ccccc23)C(=O)N[C@H](Cc2c[nH]c3ccccc23)C(=O)N[C@@H](Cc2ccc(F)cc2)C(=O)N1 [sww(F-Phe), Biotin-PEG3-Cy(sww(F-Phe))] ({Biotin-AEEEA}-[Pra][dS][dW][dW][Phe(4-F)][Lys(N3)]-NH2; triazole 1-6)
Binding to human IDO1 by ELISA, in words [2]: superior to the other 4-mers generated

IC50 [1, 3]: 622 nM | IC50 [1, 4]: 622 nM
Molecule: CC(C)[C@H]1NC(=O)[C@@H](Cc2ccc(O)cc2)NC(=O)[C@@H](Cc2c[nH]c3ccccc23)NC(=O)[C@@H](NC(=O)CCOCCOCCOCCOCCOCCOCCNC(=O)CSc2nonc2/C(=N/O)Nc2ccc(F)c(Br)c2)Cc2cn(nn2)CCCC[C@@H](C(N)=O)N(C)C(=O)[C@@H](Cc2ccc(O)cc2)NC(=O)[C@@H](C)NC1=O [Inh-PEG6-wyvay(N-Me)] ({X1-PEG6}-[Pra][dW][dY][dV][dA][dY][NMeLys(N3)]-NH2; triazole 1-7)
